IC50 data for 102 compounds are collected here from PubChem BioAssay AID488890 (Southern Research Specialized Biocontainment Screening …, 2010).

Structures are written as SMILES. Records with an inconclusive call do not appear. Active and inactive are the calls of the source. No rule for the calls is given here.

As usually defined, the IC50 is the concentration that gives 50% inhibition.

The subject of this experiment is Mycobacterium tuberculosis non-replicating, growth inhibition. Kind of experiment: growth inhibition of non-replicating M. tuberculosis (AID 488890).
`O=C(NCc1cccs1)c1cc(-c2ccc(O)cc2)on1`: the IC50 was 23.3 µM (inactive).

For `O=C(Nc1nnc(-c2ccccn2)o1)c1cccc(Cl)c1`, the IC50 was 11.4 µM (inactive). The value for `C/C(=N\NC(=O)c1ccc(Cl)cc1)c1ccccn1` was 0.89 µM; that for `Cc1cc(C(=O)NNc2cc(Cl)ccc2Cl)no1` was 18.7 µM (inactive); that for `Cn1cccc1/C=N\NC(=O)C1COc2ccccc2O1` (configuration not stated) was 13.2 µM (inactive).

In the case of `CC(=O)c1ccc(Sc2nnnn2-c2ccccc2)c([N+](=O)[O-])c1`, the IC50 is 19.4 µM (inactive). As to `CCOc1ccc(OCC(=O)OCc2cc(=O)n3cc(Br)ccc3n2)cc1`, the IC50 is 8.96 µM. The figure for `CC1=C/C(=N\OS(=O)(=O)c2ccccc2)C(C)=CC1=O` is 0.66 µM. `CCOc1ccc(NC(=O)Cn2sc3nc(C)cc(C)c3c2=O)cc1`: the IC50 was 5.5 µM. Turning to `O=C(OCn1nnc2ccccc2c1=O)C1CCCCC1`, the IC50 is 22 µM (inactive). Take `CCOC(=O)N1CCC(NS(=O)(=O)c2cc3c(cc2Cl)NC(=O)CO3)CC1`: the IC50 is 4.67 µM.

As to `CC(C)(C)OC(=O)N/N=C\c1ccc([N+](=O)[O-])s1`, the IC50 was 13.6 µM (inactive). As to `COc1ccc(/C=N/Nc2cc(C)nc3ccccc23)cc1`, the IC50 is 8.43 µM. As to `Cc1onc(-c2ccccc2Cl)c1C(=O)O/N=C(\N)c1ccc([N+](=O)[O-])o1`, the IC50 is 4.55 µM.

Consider `CN1CC(=O)NC1=NC(=O)C12CC3CC(CC(C3)C1)C2`, for which the IC50 is 4.08 µM. `CCOC(=O)c1cc(-c2csc(COc3ccc(Cl)cc3)n2)on1`: the IC50 is 0.13 µM. In the case of `COCCOC(=O)c1c(C)oc2ccc(OC(=O)c3ccco3)cc12`, the IC50 was 9.15 µM. For the compound `CCCn1nnnc1NC(=O)c1cc(Cl)ccc1Cl`, the IC50 was 6.8 µM. Regarding `CCN(CC)c1ccc2cc(C(=O)NCc3ccc(F)cc3)c(=N)oc2c1`, the IC50 was 1.62 µM. The figure for `CCCn1nnnc1NC(=O)COc1ccc(Br)cc1` is 4.62 µM; for `Cc1cccc(N2CCN(Cc3ccc([N+](=O)[O-])o3)CC2)c1C` it is 2 µM. In the case of `CN1C(=O)CC(Sc2ccccc2C(=O)O)C1=O` (configuration not stated), the IC50 was 23.6 µM (inactive). For the compound `Cc1cc(C)nc(/N=C(\N)Nc2ccc(-c3ccccc3)cc2)n1`, the IC50 is 3.5 µM. Take `COC(=O)c1cn(NC(=O)c2cnccn2)c(=O)c2ccccc12`: the IC50 was 8.67 µM. The value for `Cc1ccc(CC(=O)Nc2ccc(Cl)cn2)cc1` was 1.06 µM; that for `COc1cc(CNC(C)(C)CO)cc(Br)c1OCc1ccc(Cl)cc1Cl` was 10 µM (inactive). The value for `Cc1ccc(CSCCNC(=O)c2cccc([N+](=O)[O-])c2)cc1` was 18.4 µM (inactive).

As for `CCc1ccc(OCC(=O)NNC(=O)c2cnccn2)c(Br)c1`, the IC50 was 4.69 µM. `COc1ccc(NC(=O)CCCN2C(=O)/C(=C\c3ccco3)SC2=S)cc1`: the IC50 is 7.93 µM. Turning to `CCOC(=O)Cn1c(C)c(Br)c(=O)c2cccc(C)c21`, the IC50 was 3.76 µM. In the case of `O=c1cc(-c2ccncc2)oc2c1ccc1ccccc12`, the IC50 was 22.3 µM (inactive).

As to `COC(=O)CCS(=O)(=O)c1nc(-c2ccccc2)cc(C(F)(F)F)n1`, the IC50 was 2.25 µM.

As for `CCCCN(CC)CCNC(=O)c1cc2c(-c3ccc(Cl)cc3)nn(C)c2s1`, the IC50 was 8.57 µM. On to `O=C(Nc1nccs1)c1sc2ccccc2c1Cl`, for which the IC50 was 14.3 µM (inactive).

For the compound `CC(NC(=O)c1cc2cc(Br)ccc2oc1=N)c1ccccc1` (configuration not stated), the IC50 is 6.97 µM. For `CC1=Nc2ccccc2/C1=C/c1sc(=N)n(-c2nccs2)c1O`, the IC50 was 1.51 µM. On to `COc1ccc(C(=O)COC(=O)COc2ccc(C)c(C)c2)cc1`, for which the IC50 is 20.7 µM (inactive).

For the compound `CN(/N=C/c1ccc([N+](=O)[O-])o1)c1ccccc1`, the IC50 is 13.4 µM (inactive). `Nn1c(SCCOc2ccc(Cl)cc2)nnc1-c1cccnc1`: the IC50 is 23.5 µM (inactive). Turning to `Nc1ccc(Br)c2cccnc12`, the IC50 is 15.8 µM (inactive). Turning to `COc1ccc(C(=O)OCn2nnc3ccccc3c2=O)cc1[N+](=O)[O-]`, the IC50 was 15.8 µM (inactive). The value for `CCOC(=O)C1=C(c2ccccc2)NC(N)=NC1c1ccc(OCc2ccc(Cl)cc2)c(OC)c1` (configuration not stated) was 4.25 µM.

With `CC(C)c1ccc(N2C(=O)NC(=O)/C(=C/C=C/c3ccco3)C2=O)cc1`, the IC50 was 8.65 µM. For the compound `O=[N+]([O-])c1cc(-c2nc(-c3ccncc3)no2)cc([N+](=O)[O-])c1`, the half-inhibitory concentration (IC50) is 1.59 µM. In the case of `COc1ccc(COc2cccc(C=O)c2)cc1`, the IC50 was 25.8 µM (inactive).

Take `CC1CCCN(CCC(=O)c2ccc(Br)cc2)C1` (configuration not stated): the IC50 is 1.16 µM. In the case of `O=[N+]([O-])c1ccc2nc(SCc3cn4ccccc4n3)[nH]c2c1`, the IC50 was 8.98 µM.

As to `O=C(CN1CCN(c2ccccc2)CC1)Nc1nnc(-c2ccccc2)s1`, the IC50 was 9.53 µM. For the compound `C/C(=N\NC(=O)COc1cccc(C)c1)c1ccc2ccccc2c1O`, the IC50 is 0.18 µM. For `COc1ccc(-n2c3c(cc(C(=O)NNc4ccccc4)c2=O)C(=O)CC(C)(C)C3)cc1`, the IC50 is 17.8 µM (inactive). For the compound `CC(C)(C)c1ccc(-c2nc(C#N)c(NCCCn3ccnc3)o2)cc1`, the IC50 was 38.2 µM (inactive). Consider `CCNc1nc(NC(C)(C)C)nc(N2CCCCC2)n1`, for which the IC50 is 9.76 µM. With `O=C(Nc1nccs1)c1ccc(-c2ccc(Cl)cc2)o1`, the IC50 was 21.3 µM (inactive). Regarding `CCOC(=O)c1cn(Cc2cccc(Cl)c2)nn1`, the IC50 is 8.03 µM. On to `COC(=O)C1CC(=O)N(c2ccc(OCc3ccccc3Cl)cc2)C1` (configuration not stated), for which the IC50 is 3.53 µM. For `Cc1ccc(C2=NN(C)c3nc4ccccc4n3C2)cc1`, the IC50 was 18.7 µM (inactive). As to `Cc1onc(-c2c(F)cccc2Cl)c1C(=O)O/N=C(\N)c1ccc([N+](=O)[O-])o1`, the IC50 was 5.96 µM. The value for `Cc1ccnc(NC(=O)CCc2c[nH]c3ccccc23)c1` was 5.51 µM. As to `COc1ccc(-c2cc(=O)oc(-c3cccc(C)c3)n2)cc1`, the IC50 was 8.24 µM. As to `Cc1ccccc1C(=O)Nc1nnc(-c2ccco2)o1`, the IC50 was 4.97 µM. Consider `O=C(Nc1nnc(-c2ccncc2)o1)c1ccc(Br)s1`, for which the IC50 is 7.66 µM.

Regarding `CCc1ccc(OCC(=O)Nc2ccncc2)c(Br)c1`, the IC50 was 6.25 µM. As for `Nc1ccc2nc3c(c(Cl)c2c1)CCCC3`, the IC50 was 13.4 µM (inactive). The value for `Cc1ccc(N=Nc2c(C)[nH]n(C(N)=S)c2=O)cc1C` was 0.57 µM; that for `Fc1ccc(-c2nnc(CSc3nnc(-c4cccs4)o3)o2)cc1` was 3.68 µM.

`O=c1[nH]c(-c2ccccn2)nc2ccccc12`: the IC50 is 9.66 µM. Regarding `COc1ccc(-c2nnn(Cc3ccccc3)n2)cc1`, the IC50 is 12.4 µM (inactive). For the compound `Cn1c(CNc2ccccc2O)nc2ccccc21`, the IC50 was 5.64 µM.

Consider `Cc1ccsc1C(=O)OCC(=O)Nc1nnc(-c2ccccc2)o1`, for which the IC50 was 18.2 µM (inactive). As to `Cn1cnc([N+](=O)[O-])c1S(=O)(=O)c1cccc(Cl)c1`, the IC50 was 4.5 µM. In the case of `CC1CCN(C(=O)COC(=O)c2cc3ccccc3cc2O)CC1`, the IC50 is 2.04 µM. The figure for `O=[N+]([O-])c1ccc2nc(-c3ccccn3)[nH]c2c1` is 18.3 µM (inactive); for `COc1ccc(C(=O)C(CN2CCCC2)c2ccccc2)cc1` (configuration not stated) it is 5.58 µM. `Cc1ccc(NC(=O)c2ccc([N+](=O)[O-])o2)cc1C`: the IC50 is 0.28 µM. As to `CC(/C=C/c1ccccc1F)=N\NC(=O)c1ccccc1`, the IC50 is 3.87 µM. For the compound `Cc1ccc(OCC(=O)N/N=C/c2ccc([N+](=O)[O-])o2)cc1`, the IC50 was 2.89 µM.

In the case of `Cc1noc2ncnc(Sc3ccc(Cl)cc3)c12`, the IC50 is 10.9 µM (inactive). With `CN(C)CCN1C(=O)c2oc3ccccc3c(=O)c2C1c1cccc(Br)c1` (configuration not stated), the IC50 was 23.1 µM (inactive). The figure for `Cc1[nH]n2c(=O)c3c(nc2c1-c1ccc(Cl)cc1)CCC3` is 3.4 µM.

As to `CNc1nc(-c2ccccn2)nnc1-c1ccccc1`, the IC50 was 16.2 µM (inactive). For the compound `Cc1nc(C(=O)Nc2ccccc2)sc1C(=O)Nc1ccccc1`, the IC50 was 9.77 µM. In the case of `Cc1nn(-c2ccccc2)nc1C(=O)c1c(C)[nH]n(-c2ccccc2)c1=O`, the IC50 was 4.19 µM. As for `CC(=O)c1cc2c(ccc3ccccc32)oc1=O`, the IC50 is 15.4 µM (inactive).

Turning to `O=C(Nc1ccc(Br)cc1)c1cc([N+](=O)[O-])cc([N+](=O)[O-])c1`, the IC50 is 2.63 µM.

Turning to `CS(=O)(=O)Nc1cccc2cccnc12`, the IC50 was 21.4 µM (inactive). In the case of `CCc1ccc(OCC(=O)c2c(O)c3ccccc3oc2=O)cc1`, the IC50 was 9.35 µM. Take `CCCCCCCC(=O)N/N=C(/C)c1c(O)cc(C)oc1=O`: the IC50 is 4.26 µM. Turning to `CC(/C=C/c1ccccc1)=N\NC(=O)c1ccc2c(c1)OCCO2`, the IC50 is 8.02 µM. Take `O=C(Nc1nnc(-c2ccco2)o1)c1ccc(Cl)s1`: the IC50 was 11.2 µM (inactive).

Take `Nc1ccc2cc(Br)ccc2c1`: the IC50 is 0.44 µM. `O=C(Nc1nnc(-c2ccco2)o1)c1ccc([N+](=O)[O-])s1`: the IC50 is 22.4 µM (inactive). As for `Cc1ccc(-n2sc3ccccc3c2=O)cc1`, the IC50 was 14.3 µM (inactive). The figure for `Cc1cccc2nc(CSc3nc4cc([N+](=O)[O-])ccc4s3)cn12` is 18.1 µM (inactive); for `CC(=O)Nc1nc2ccccc2n1Cc1ccccc1Cl` it is 14.1 µM (inactive). With `O=C(NC(=S)N1CCN(C/C=C/c2ccccc2)CC1)c1ccco1`, the IC50 was 36.1 µM (inactive). For `Cc1ccc(/C=C2\SC(N3CCCC3)=NC2=O)cc1`, the IC50 was 6.15 µM. As to `Cc1cc(N/N=C/c2ccc(F)cc2)nc(-n2nc(C)cc2C)n1`, the IC50 was 4.92 µM.

In the case of `CCCc1cc(NCc2ccccn2)n2nc(C)c(-c3ccccc3)c2n1`, the IC50 was 2.23 µM.

As to `O=C(N/N=C/c1cccc(F)c1)c1c(O)c2ccccc2[nH]c1=O`, the IC50 was 3.17 µM. Turning to `CCCCn1c(=O)c(C(=O)Nc2ncccc2C)c(O)c2ccccc21`, the IC50 is 3.81 µM. With `O=c1cc(-c2ccccc2Cl)oc2c([N+](=O)[O-])c(O)cc(O)c12`, the IC50 was 5.05 µM. `CCOc1ccc(NC(=O)CCc2ccc(C)o2)cc1`: the IC50 is 7.77 µM.
